Test results taken from ChEMBL document CHEMBL4000183, “Phenylpropanoids from Juglans mandshurica exhibit cytotoxicities on liver cancer cell lines through apoptosis induction” (Bioorg Med Chem Lett, 2017).
Calls of active or inactive are those of the source. No cut-off for these calls is given here.

Assays:
Hep 3B2 [1] = assay: Cytotoxic activity against human Hep3B cells assessed as growth inhibition after 48 hrs by MTT assay; assay type: functional, cell-based; conditions: for IC50: Homo sapiens, Hep3B, 48 h
HepG2 [2] = assay: Cytotoxic activity against human HepG2 cells assessed as growth inhibition after 48 hrs by MTT assay; assay type: functional, cell-based; conditions: for IC50: Homo sapiens, HepG2, 48 h
HepG2 [3] = assay: Cytotoxic activity against human HepG2 cells assessed as growth inhibition at 25 uM after 48 hrs by MTT assay; assay type: functional; conditions: HepG2, 48 h, read-out: GI
Hep 3B2 [4] = assay: Induction of apoptosis in human Hep3B cells assessed as increase in cleaved-caspase 9 level at 50 uM after 48 hrs by Western blot analysis; assay type: functional, cell-based
HepG2 [5] = assay: Induction of apoptosis in human HepG2 cells assessed as increase in cleaved PARP level at 60 uM after 48 hrs by Western blot analysis; assay type: functional, cell-based
Hep 3B2 [6] = assay: Induction of apoptosis in human Hep3B cells assessed as chromatin condensation at 50 uM after 48 hrs by AO staining-based phase contrast microscopic analysis; assay type: functional, cell-based
Hep 3B2 [7] = assay: Induction of apoptosis in human Hep3B cells assessed as decrease in pro-caspase 9 level at 50 uM after 48 hrs by Western blot analysis; assay type: functional, cell-based
HepG2 [8] = assay: Cytotoxic activity against human HepG2 cells assessed as growth inhibition at 12.5 uM after 48 hrs by MTT assay; assay type: functional; conditions: HepG2, 48 h, read-out: GI
HepG2 [9] = assay: Induction of apoptosis in human HepG2 cells assessed as decrease in pro-caspase 7 level at 60 uM after 48 hrs by Western blot analysis; assay type: functional, cell-based
HepG2 [10] = assay: Induction of apoptosis in human HepG2 cells assessed as increase in cleaved-caspase 9 level at 60 uM after 48 hrs by Western blot analysis; assay type: functional, cell-based
Hep 3B2 [11] = assay: Cytotoxic activity against human Hep3B cells assessed as growth inhibition at 12.5 uM after 48 hrs by MTT assay; assay type: functional; conditions: read-out: GI
HepG2 [12] = assay: Induction of apoptosis in human HepG2 cells assessed as decrease in PARP level at 60 uM after 48 hrs by Western blot analysis; assay type: functional, cell-based
Hep 3B2 [13] = assay: Cytotoxic activity against human Hep3B cells assessed as growth inhibition at 100 uM after 48 hrs by MTT assay; assay type: functional; conditions: read-out: GI
Hep 3B2 [14] = assay: Induction of apoptosis in human Hep3B cells assessed as increase in Bax level at 50 uM after 48 hrs by Western blot analysis; assay type: functional, cell-based
HepG2 [15] = assay: Cytotoxic activity against human HepG2 cells assessed as growth inhibition at 6.25 uM after 48 hrs by MTT assay; assay type: functional; conditions: HepG2, 48 h, read-out: GI
HepG2 [16] = assay: Cytotoxic activity against human HepG2 cells assessed as growth inhibition at 100 uM after 48 hrs by MTT assay; assay type: functional; conditions: HepG2, 48 h, read-out: GI
Hep 3B2 [17] = assay: Induction of apoptosis in human Hep3B cells assessed as increase in cleaved PARP level at 50 uM after 48 hrs by Western blot analysis; assay type: functional, cell-based
HepG2 [18] = assay: Induction of apoptosis in human HepG2 cells assessed as decrease in Bcl-2 level at 60 uM after 48 hrs by Western blot analysis; assay type: functional, cell-based
HepG2 [19] = assay: Induction of apoptosis in human HepG2 cells assessed as formation of apoptotic bodies at 60 uM after 48 hrs by AO staining-based phase contrast microscopic analysis; assay type: functional, cell-based
Hep 3B2 [20] = assay: Induction of apoptosis in human Hep3B cells assessed as nuclear fragmentation at 50 uM after 48 hrs by AO staining-based phase contrast microscopic analysis; assay type: functional, cell-based
Hep 3B2 [21] = assay: Cytotoxic activity against human Hep3B cells assessed as growth inhibition at 50 uM after 48 hrs by MTT assay; assay type: functional; conditions: read-out: GI
HepG2 [22] = assay: Induction of apoptosis in human HepG2 cells assessed as decrease in pro-caspase 9 level at 60 uM after 48 hrs by Western blot analysis; assay type: functional, cell-based
Hep 3B2 [23] = assay: Induction of apoptosis in human Hep3B cells assessed as cell shrinkage at 50 uM after 48 hrs by AO staining-based phase contrast microscopic analysis; assay type: functional
HepG2 [24] = assay: Induction of apoptosis in human HepG2 cells assessed as increase in cleaved-caspase 7 level at 60 uM after 48 hrs by Western blot analysis; assay type: functional, cell-based
HepG2 [25] = assay: Cytotoxic activity against human HepG2 cells assessed as growth inhibition at 50 uM after 48 hrs by MTT assay; assay type: functional; conditions: HepG2, 48 h, read-out: GI
Hep 3B2 [26] = assay: Induction of apoptosis in human Hep3B cells assessed as decrease in PARP level at 50 uM after 48 hrs by Western blot analysis; assay type: functional, cell-based
HepG2 [27] = assay: Induction of apoptosis in human HepG2 cells assessed as nuclear fragmentation at 60 uM after 48 hrs by AO staining-based phase contrast microscopic analysis; assay type: functional, cell-based
Hep 3B2 [28] = assay: Induction of apoptosis in human Hep3B cells assessed as decrease in Bcl-2 level at 50 uM after 48 hrs by Western blot analysis; assay type: functional, cell-based
HepG2 [29] = assay: Induction of apoptosis in human HepG2 cells assessed as increase in Bax level at 60 uM after 48 hrs by Western blot analysis; assay type: functional, cell-based
HepG2 [30] = assay: Induction of apoptosis in human HepG2 cells assessed as chromatin condensation at 60 uM after 48 hrs by AO staining-based phase contrast microscopic analysis; assay type: functional, cell-based
Hep 3B2 [31] = assay: Cytotoxic activity against human Hep3B cells assessed as growth inhibition at 6.25 uM after 48 hrs by MTT assay; assay type: functional; conditions: read-out: GI
Hep 3B2 [32] = assay: Induction of apoptosis in human Hep3B cells assessed as increase in cleaved-caspase 7 level at 50 uM after 48 hrs by Western blot analysis; assay type: functional, cell-based
Hep 3B2 [33] = assay: Induction of apoptosis in human Hep3B cells assessed as decrease in pro-caspase 7 level at 50 uM after 48 hrs by Western blot analysis; assay type: functional, cell-based
Hep 3B2 [34] = assay: Cytotoxic activity against human Hep3B cells assessed as growth inhibition at 25 uM after 48 hrs by MTT assay; assay type: functional; conditions: read-out: GI

COC(=O)c1ccc(OCCC(C)CO)cc1 (stereo unspecified)
growth inhibition (GI) (Hep 3B2 [1]): 19.85%
growth inhibition (GI) (HepG2 [2]): -11.27%

C/C(=C\COc1ccc(/C=C/C=O)cc1)CO
inhibition of growth at 25 µM (HepG2 [3]): 7.01%
Activity (Hep 3B2 [4]): Active
Activity (HepG2 [5]): Active
growth inhibition (GI) (Hep 3B2 [1]): 93.78%
IC50 (Hep 3B2 [1]): 46.5 µM
Activity (Hep 3B2 [6]): Active
Activity (Hep 3B2 [7]): Active
inhibition of growth at 12.5 µM (HepG2 [8]): 12.2%
growth inhibition (GI) (HepG2 [2]): 87.79%
IC50 (HepG2 [2]): 63.7 µM
Activity (HepG2 [9]): Active
Activity (HepG2 [10]): Active
inhibition of growth at 12.5 µM (Hep 3B2 [11]): 9.1%
Activity (HepG2 [12]): Active
inhibition of growth at 100 µM (Hep 3B2 [13]): 91.5%
Activity (Hep 3B2 [14]): Active
inhibition of growth at 6.25 µM (HepG2 [15]): -9.7%
inhibition of growth at 100 µM (HepG2 [16]): 69.2%
Activity (Hep 3B2 [17]): Active
Activity (HepG2 [18]): Active
Activity (HepG2 [19]): Active
Activity (Hep 3B2 [20]): Active
inhibition of growth at 50 µM (Hep 3B2 [21]): 77.7%
Activity (HepG2 [22]): Active
Activity (Hep 3B2 [23]): Active
Activity (HepG2 [24]): Active
inhibition of growth at 50 µM (HepG2 [25]): 52%
Activity (Hep 3B2 [26]): Active
Activity (HepG2 [27]): Active
Activity (Hep 3B2 [28]): Active
Activity (HepG2 [29]): Active
Activity (HepG2 [30]): Active
inhibition of growth at 6.25 µM (Hep 3B2 [31]): -4.83%
Activity (Hep 3B2 [32]): Active
Activity (Hep 3B2 [33]): Active
inhibition of growth at 25 µM (Hep 3B2 [34]): 11.6%

O=c1[nH]cc(F)c(=O)[nH]1 [FLUOROURACIL]
inhibition of growth at 25 µM (HepG2 [3]): 39.2%
growth inhibition (GI) (Hep 3B2 [1]): 56.74%
IC50 (Hep 3B2 [1]): 10.5 to 11.9 µM
inhibition of growth at 12.5 µM (HepG2 [8]): 32.9%
growth inhibition (GI) (HepG2 [2]): 51.78%
IC50 (HepG2 [2]): 32.6 to 49.7 µM
inhibition of growth at 12.5 µM (Hep 3B2 [11]): 50.6%
inhibition of growth at 100 µM (Hep 3B2 [13]): 57%
inhibition of growth at 6.25 µM (HepG2 [15]): 19.3%
inhibition of growth at 100 µM (HepG2 [16]): 51.2%
inhibition of growth at 50 µM (Hep 3B2 [21]): 54.5%
inhibition of growth at 50 µM (HepG2 [25]): 47.3%
inhibition of growth at 6.25 µM (Hep 3B2 [31]): 48.9%
inhibition of growth at 25 µM (Hep 3B2 [34]): 51.7%

CC(CO)CCOc1ccc(C=O)cc1 (stereo unspecified)
growth inhibition (GI) (Hep 3B2 [1]): 27.41%
growth inhibition (GI) (HepG2 [2]): -1.05%

CC(/C=C\Oc1ccc(CCCO)cc1)CO (single isomer, unassigned; (+))
growth inhibition (GI) (Hep 3B2 [1]): 69.59%
growth inhibition (GI) (HepG2 [2]): 13.76%
